The source of these data is patent publication US20250276983A1, “COMPOUNDS AND METHODS FOR MODULATING HER2” (IAMBIC THERAPEUTICS, INC., priority 2022, published 2025).

Structures are written as SMILES.

Common to all, as to assay type: cell-based
The subject of one assay is BaF3_HER2YVMA cells. In words: Cell growth inhibition assay, BaF3_HER2YVMA. The following applies: 72 h, BaF3_HER2YVMA cells, 3 days treatment, CellTiterGlo 2.0; read-out: HER2-YVMA IC50 (nM), cell growth inhibition. For orientation: ATP-based viability assays read luminescence as a measure of living cells.
A further assay has as its system BaF3_HER2WT cells. Put plainly: Cell growth inhibition assay, BaF3_HER2WT. The following applies: 72 h, 3 days treatment, CellTiterGlo 2.0, read-out: HER2 WT IC50 (nM), cell growth inhibition.
A further assay deals with BaF3_EGFRWT cells. In words: Cell growth inhibition assay, BaF3_EGFRWT. The following applies: 72 h, 80 ng/mL recombinant human EGF, 3 days treatment, CellTiterGlo 2.0, read-out: EGFR WT IC50 (nM), cell growth inhibition.

As for `Cc1cc(Nc2ncnn3ccc(C4CCN(C(=O)/C=C/CN5CCC6(COC6)C5)CC4)c23)ccc1Oc1ccn2ncnc2c1` [Example 120, E-1-(4-(4-((4-([1,2,4]triazolo[1,5-a]-208-midazol-7-yloxy)-3-methylphenyl)amino)pyrrolo[2,1-f][1,2,4]triazin-5-yl)piperidin-1-yl)-4-(2-oxa-6-azaspiro[3.4]octan-6-yl)but-2-en-1-one], the IC50 in the assay on BaF3_HER2YVMA cells was less than 200 nM; with BaF3_HER2WT cells it was less than 200 nM; in the assay on BaF3_EGFRWT cells, 1500 to 5000 nM.
On to `C=CC(=O)N1CCN(c2ccn3ncnc(Nc4ccc(Oc5ccc6c(c5)ncn6C)c(C)c4)c23)CC1` [Example 121, 1-(4-(4-((3-methyl-4-((1-methyl-1H-benzo[d]imidazol-5-yl)oxy)phenyl)amino)pyrrolo[2,1-f][1,2,4]triazin-5-yl)piperazin-1-yl)prop-2-en-1-one], for which the half-maximal inhibitory concentration (IC50) is less than 200 nM in the assay with BaF3_HER2YVMA cells, less than 200 nM in the assay with BaF3_HER2WT cells and 500 to 1500 nM in the assay with BaF3_EGFRWT cells.
With `Cc1cc(Nc2ncnn3ccc(C4CCN(C(=O)/C=C/CN5CCC6(COC6)C5)CC4)c23)ccc1Oc1ccc2c(c1)ncn2C` [Example 129, (E)-1-(4-(4-((3-methyl-4-((1-methyl-1H-benzo[d]imidazol-5-yl)-oxy)phenyl)amino)-pyrrolo[2,1-f][1,2,4]triazin-5-yl)piperidin-1-yl)-4-(2-oxa-6-azaspiro[3.4]octan-6-yl)but-2-en-1-one], the IC50 in the assay on BaF3_HER2YVMA cells is less than 200 nM; in the assay with BaF3_HER2WT cells, less than 200 nM; in the assay on BaF3_EGFRWT cells, 1500 to 5000 nM.
`Cc1cc(Nc2ncnn3ccc(C4CCN(C(=O)/C=C/CN(C)C)CC4)c23)ccc1Oc1ccc2c(c1)ncn2C` [Example 133, (E)-4-(dimethylamino)-1-(4-(4-((3-methyl-4-((1-methyl-1H-benzo[d]-224-midazole-5-yl)oxy)phenyl)amino)pyrrolo[2,1-f][1,2,4]triazin-5-yl)piperidin-1-yl)but-2-en-1-one]: the IC50 with BaF3_HER2YVMA cells is less than 200 nM; in the assay with BaF3_HER2WT cells, less than 200 nM; with BaF3_EGFRWT cells, 1500 to 5000 nM.
Consider `Cc1cc(Nc2ncnn3ccc(C4CN(C(=O)/C=C/CN(C)C)C4)c23)ccc1Oc1ccn2cnnc2c1` [Example 134, (E)-1-(3-(4-((4-([1,2,4]triazolo[4,3-a]pyridin-7-yloxy)-3-methylphenyl)amino)pyrrolo[2,1-f][1,2,4]triazin-5-yl)azetidin-1-yl)-4-(dimethylamino)but-2-en-1-one], for which the IC50 with BaF3_HER2YVMA cells is 1500 to 5000 nM; with BaF3_HER2WT cells it was 200 to 500 nM; in the assay on BaF3_EGFRWT cells, 1500 to 5000 nM.
With `C=CC(=O)N1C[C@H]2C[C@@H]1C[C@@H]2c1ccn2ncnc(Nc3ccc(Oc4ccn5ncnc5c4)c(C)c3)c12` [Example 141, 1-[(1S,4S,5S)-5-{4-[(3-methyl-4-{[1,2,4]triazolo[1,5-a]pyridin-7-yloxy}phenyl)amino]pyrrolo[2,1-f][1,2,4]triazin-5-yl}-2-azabicyclo[2.2.1]heptan-2-yl]prop-2-en-1-one], the results for the IC50 in the assay on BaF3_HER2YVMA cells, in the assay with BaF3_HER2WT cells and in the assay with BaF3_EGFRWT cells were 500 to 1500 nM, 200 to 500 nM and 1500 to 5000 nM, respectively.
In the same order, the values of `Cc1cc(Nc2ncnn3ccc(C4CCN(C(=O)/C=C/C(=O)O)CC4)c23)ccc1Oc1ccn2ncnc2c1` [Example 142, (E)-4-(4-(4-((4-([1,2,4]triazolo[1,5-a]pyridin-7-yloxy)-3-methylphenyl)amino)pyrrolo[2,1-f][1,2,4]triazin-5-yl)piperidin-1-yl)-4-oxobut-2-enoic acid] are 1500 to 5000 nM, 1500 to 5000 nM and 1500 to 5000 nM.
For `Cc1cc(Nc2ncnn3ccc(C4CCN(C(=O)/C=C/CN)CC4)c23)ccc1Oc1ccn2ncnc2c1` [Example 150, (E)-1-(4-(4-((4-([1,2,4]triazolo[1,5-a]pyridin-7-yloxy)-3-methylphenyl)amino)pyrrolo[2,1-f][1,2,4]triazin-5-yl)piperidin-1-yl)-4-aminobut-2-en-1-one], the IC50 fell in the range of 1500 to 5000 nM in the assay on BaF3_HER2YVMA cells, 500 to 1500 nM in the assay with BaF3_HER2WT cells and 1500 to 5000 nM with BaF3_EGFRWT cells.

As a reminder, the IC50 is the midpoint of a concentration-inhibition curve.
